Test results taken from patent US4175130A, “Oxazole- and thiazole-alkanoic acid compounds” (Yoshitomi Pharmaceutical Industries, Ltd., priority 1977, dated 1979).

Tests used:
[1] = tested on: serum cholesterol; assay: Hypolipidemic action: male mice with hyperlipidemia (high cholesterol diet); type: in vivo, male dd-strain mice; details: dd mice, 100 mg/kg/day oral, 5 days, * p<0.05 (A, B, C, D starred; clofibrate not)
Method: (2) Male mice with hyperlipidemia:
Male dd-strain mice (20-25 g) were used. Each group was composed of 10 animals. Mice were fed a high cholesterol diet (1% cholesterol, 0.2% sodium cholate, 5% olive oil and 93.8% commercial diet) for 5 days. The test compound was orally administered to the animals once a day throughout the experimental period. The serum cholesterol was determined by the procedure described in Experiment (1).

[2] = Acute Toxicity (oral); details: mouse, in vivo, mice, p.o., mortality within 7 days
Method: Male dd-strain mice (20-25 g) were used. Each group was composed of 10 animals. The test compound was orally administered to the animals. The LD50 (mg/kg) was calculated from the mortality within 7 days after administration of the test compound.

[3] = Liver weight / hepatomegaly; type: in vivo, male Wistar rats; details: for Increase (%) Liver Weight: Wistar rats, 100 mg/kg/day oral, 5 days, * p<0.05 (only clofibrate starred)
[4] = tested on: Cholesterol and triglyceride in the serum; assay: Hypolipidemic action: male rats with normolipidemia (serum cholesterol and triglyceride, oral, 5 days); type: in vivo; details: Wistar rats, 100 mg/kg/day oral, control = 100%, * p<0.05 (all values starred)
Method: (1) Male rats with normolipidemia:
Male Wistar rats (170-250 g) were used. Each group was composed of 6 animals. The test compound was orally given by a gastric tube for 5 days. Cholesterol and triglyceride in the serum were determined by the standard methods using antoanalyzer (Technicon Inc.). The levels in the control group were considered as 100% and the reduction rate (%) in the test group was calculated.

[5] = Serum Levels in Rhesus Monkey; type: in vivo, rhesus monkeys; details: 10 mg/kg oral; for Cmax: read-out: Peak level (serum)
Method: Serum Levels in Rhesus Monkey
The test compound was orally administered to rhesus monkeys at the dose of 10 mg/kg. Blood was collected at 0, 2, 4, 6, 8, 24, 30 and 48 hours after the administration of the test compound. After centrifugation, serum was stored at -20° C. until taken for analysis. Serum drug was extracted with ethyl acetate and fluorometrically determined.
(Wavelengths for fluorometric determination:
excitation: 294 nm, emission: 365 nm with compound A;
excitation: 305 nm, emission: 370 nm with compound D)

SMILES	Decrease (%) of Serum Cholesterol [1] [%]	LD50 at 168 h [2] [mg/kg]	liver enlargement ([3]; 100 mg/kg)	Increase (%) Liver Weight [3] [%]	Decrease (%) Cholesterol [4] [%]	Decrease (%) Triglyceride [4] [%]	half-life [5] [h]	Cmax [5] [ng/mL]	hepatomegaly ([3]; 500 mg/kg)
CCOC(=O)C(C)(C)Oc1ccc(Cl)cc1 [Clofibrate, reference compound]	16	1500	significant liver enlargement	17	32	34			
O.O=C(O)Cc1nc(-c2ccc(Cl)cc2)oc1Oc1ccccc1 [B, 2-p-Chlorophenyl-5-phenoxy-4-oxazoleacetic acid monohydrate]	38			-6	37	33			
CCOC(=O)Cc1nc(-c2ccc(Cl)cc2)sc1Sc1ccccc1 [C, Ethyl 2-p-chlorophenyl-5-phenylthio-4-thiazoleacetate]	34			15	40	29			
CCOC(=O)Cc1nc(-c2ccc(Cl)cc2)oc1OCC [D, Ethyl 2-p-chlorophenyl-5-ethoxy-4-oxazoleacetate, reference compound]	37	3700		5	32	33	3	15000	
CCOC(=O)Cc1nc(-c2ccc(Cl)cc2)oc1Oc1ccc(Cl)cc1 [Compound A, Ethyl 2-p-chlorophenyl-5-p-chlorophenoxy-4-oxazoleacetate]	37	> 6000		5	40	33	30	30000	no hepatomegaly
